Biological target: T1, human M2 receptor (Homo sapiens, UniProt P08172)
T1 construct: expressed in transfected cells; host or cells: CHO-DUKX (CHO-DUKX-M2-GIRK)
T1 sequence (P08172 1-466): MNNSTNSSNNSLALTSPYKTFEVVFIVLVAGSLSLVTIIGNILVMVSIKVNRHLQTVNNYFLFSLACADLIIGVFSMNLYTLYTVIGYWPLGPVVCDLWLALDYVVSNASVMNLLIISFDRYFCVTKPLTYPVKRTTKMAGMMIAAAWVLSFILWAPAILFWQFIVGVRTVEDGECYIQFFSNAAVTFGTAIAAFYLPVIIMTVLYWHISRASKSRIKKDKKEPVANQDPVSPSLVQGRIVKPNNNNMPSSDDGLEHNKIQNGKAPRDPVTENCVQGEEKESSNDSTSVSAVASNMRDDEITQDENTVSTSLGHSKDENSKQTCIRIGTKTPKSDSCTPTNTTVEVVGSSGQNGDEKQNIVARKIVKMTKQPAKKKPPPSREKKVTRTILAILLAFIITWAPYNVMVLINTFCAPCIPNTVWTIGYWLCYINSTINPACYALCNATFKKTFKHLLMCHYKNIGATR
Assay: Functional M2-GIRK1/4 activation test: allosteric potency (EC50) and efficiency at EC20 acetylcholine
Type: cell-based
Conditions: CHO-DUKX-M2-GIRK cells; for EC50: voltage-sensitive dye, acetylcholine at EC20, in some cases mean of two or more determinations; for Emax / Efficiency: boosting of the acetylcholine effect at EC20 acetylcholine concentration
Summary of the method: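 Positive allosteric modulation measured as boosting of an EC20 acetylcholine response: hyperpolarization via GIRK1/4 in CHO-DUKX-M2-GIRK cells, monitored by membrane-potential dye fluorescence over 60 s after agonist, compound preadded. Hill-function fit gives EC50 and efficiency.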

O=C(NC(C(F)(F)F)C(F)(F)F)c1cn(-c2ncc(F)cc2F)c2nc(N3CCCC[C@@H]3CO)c(F)cc2c1=O [Example 190, 1-(3,5-Difluoropyridin-2-yl)-6-fluoro-N-(1,1,1,3,3,3-hexafluoropropan-2-yl)-7-[(2R)-2-(hydroxymethyl)piperidin-1-yl]-4-oxo-1,4-dihydro-1,8-naphthyridine-3-carboxamide]
EC50: 0.0835 µM
Emax: 100%

CC(C)[C@@H](C)NC(=O)c1cn(-c2c(F)cc(F)cc2F)c2nc(N3C[C@@H](O)[C@@H](O)C3)c(F)cc2c1=O [Example 99, 7-[(3R,4S)-3,4-Dihydroxypyrrolidin-1-yl]-6-fluoro-N-[(2R)-3-methylbutan-2-yl]-4-oxo-1-(2,4,6-trifluorophenyl)-1,4-dihydro-1,8-naphthyridine-3-carboxamide]
EC50: 0.0355 µM
Emax: 96%

CC(NC(=O)c1cn(-c2ncc(F)cc2F)c2nc(N3CC[C@H](O)C3)c(F)cc2c1=O)C(F)(F)C(F)(F)F (single isomer, unassigned) [Example 129]
EC50: 0.066 µM
Efficiency: 95%

CCC(NC(=O)c1cn(-c2c(F)cc(F)cc2F)c2nc(N3CCOCC3)c(F)cc2c1=O)C(F)(F)C(F)(F)F (racemic) [Example 148, 6-Fluoro-7-(morpholin-4-yl)-4-oxo-N-[1,1,1,2,2-pentafluoropentan-3-yl]-1-(2,4,6-trifluoro-phenyl)-1,4-dihydro-1,8-naphthyridine-3-carboxamide]
EC50: 0.0187 µM
Emax: 96%

C[C@H](NC(=O)c1cn(-c2c(F)cc(F)cc2F)c2nc(N3C[C@@H](O)[C@H](O)C3)c(F)cc2c1=O)C1CC1 [Example 20, N-[(1S)-1-cyclopropylethyl]-7-[(3R,4R)-3,4-dihydroxypyrrolidin-1-yl]-6-fluoro-4-oxo-1-(2,4,6-trifluorophenyl)-1,4-dihydro-1,8-naphthyridine-3-carboxamide]
EC50: 0.013 µM
Emax: 92%

CC(COC(F)(F)F)NC(=O)c1cn(-c2ccc(F)cc2F)c2ncc(Cl)cc2c1=O (racemic) [Example 135, 6-Chloro-1-(2,4-difluorophenyl)-4-oxo-N-[1-(trifluoromethoxy)propan-2-yl]-1,4-dihydro-1,8-naphthyridine-3-carboxamide]
EC50: 2.61 µM
Emax: 75%

O=C(NC(C(F)(F)F)C(F)(F)F)c1cn(-c2c(F)cc(F)cc2F)c2nc(N3CCC[C@@H]3CO)c(F)cc2c1=O [Example 199, 6-Fluoro-N-(1,1,1,3,3,3-hexafluoropropan-2-yl)-7-[(2R)-2-(hydroxymethyl)pyrrolidin-1-yl]-4-oxo-1-(2,4,6-trifluorophenyl)-1,4-dihydro-1,8-naphthyridine-3-carboxamide]
EC50: 0.014 µM
Emax: 100%

CC[C@H](NC(=O)c1cn(-c2c(F)cc(F)cc2F)c2nc(N3C[C@H](O)[C@@H](O)C3)c(F)cc2c1=O)C(F)(F)F [Example 178, 7-[(3S,4S)-3,4-Dihydroxypyrrolidin-1-yl]-6-fluoro-4-oxo-N-[(2S)-1,1,1-trifluorobutan-2-yl]-1-(2,4,6-trifluorophenyl)-1,4-dihydro-1,8-naphthyridine-3-carboxamide]
EC50: 0.017 µM
Emax: 99%

CCN(CC(C)O)c1nc2c(cc1F)c(=O)c(C(=O)N[C@@H](C1CC1)C(F)(F)F)cn2-c1c(F)cc(F)cc1F (single isomer, unassigned) [Example 67]
EC50: 0.01 µM
Efficiency: 95%

CCC(COC(F)(F)F)NC(=O)c1cn(-c2c(F)cc(F)cc2F)c2nc(N3CC[C@H](O)C3)c(F)cc2c1=O (single isomer, unassigned) [Example 111]
EC50: 0.0072 µM
Efficiency: 99%

CCC(NC(=O)c1cn(-c2c(F)cc(F)cc2F)c2nc(N3C[C@@H](O)[C@@H](O)C3)c(F)cc2c1=O)C(C)C (stereo partly drawn) [Example 106, 7-[(3R,4S)-3,4-Dihydroxypyrrolidin-1-yl]-6-fluoro-V-[2-methylpentan-3-yl]-6-fluoro-4-oxo-1-(2,4,6-trifluorophenyl)-1,4-dihydro-1,8-naphthyridine-3-carboxamide]
EC50: 0.0072 µM
Efficiency: 100%

Reference: patent publication US11472803B2, “7-substituted 1-aryl-naphthyridine-3-carboxylic acid amides and use thereof” (Bayer Aktiengesellschaft, priority 2016, dated 2022)
